For three compounds, MIC results are on record in patent publication US20240425464A1, “Substituted Monohydrazides as Potent Antifungal Agents” (University of Kentucky Research Foundation, priority 2023, published 2024).

≈ marks a conversion by molar mass, not a printed value.

In assay [1] the test system is C. auris AR Bank #381. In words: MIC determination by in vitro antifungal assay. The assay is classed as cell-based, Candida auris. To be noted: Candidozyma auris; C. auris AR Bank #381; read-out: MIC. The method in brief:
(§1)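 RPMI 1640 (L-glutamine, no bicarbonate), 0.165 M MOPS, pH 7.0, 35° C. Inoculum: growing culture set to OD600 0.12 (˜1×10^6 CFU/mL), diluted 1:100. CDC AR Bank isolates.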

In assay [2] the test system is C. auris AR Bank #382. Put plainly: MIC determination by in vitro antifungal assay. The assay is classed as cell-based, Candida auris. To be noted: Candidozyma auris; C. auris AR Bank #382; read-out: MIC. In short, it runs like this: as §1
Assay [3] has as its system C. auris AR Bank #383. Put plainly: MIC determination by in vitro antifungal assay. The assay is classed as cell-based, Candida auris. To be noted: Candidozyma auris; C. auris AR Bank #383; read-out: MIC. The method in brief: as §1
Assay [4] relates to C. auris AR Bank #385. Put plainly: MIC determination by in vitro antifungal assay. The assay is classed as cell-based, Candida auris. The conditions noted are these: Candidozyma auris; C. auris AR Bank #385; read-out: MIC. In short, it runs like this: as §1
The test system of assay [5] is C. auris AR Bank #386. In words: MIC determination by in vitro antifungal assay. The assay is classed as cell-based, Candida auris. The conditions noted are these: Candidozyma auris; C. auris AR Bank #386; read-out: MIC. In short, it runs like this:
as §1

Assay [6] concerns C. auris AR Bank #387. In words: MIC determination by in vitro antifungal assay. The assay is classed as cell-based, Candida auris. To be noted: Candidozyma auris; C. auris AR Bank #387; read-out: MIC. In short, it runs like this:
as §1

For assay [7], the system named is C. auris AR Bank #388. In words: MIC determination by in vitro antifungal assay. The format is cell-based, Candida auris. To be noted: Candidozyma auris; C. auris AR Bank #388; read-out: MIC. In short, it runs like this: as §1
The test system of assay [8] is C. auris AR Bank #389. In words: MIC determination by in vitro antifungal assay. The assay is classed as cell-based, Candida auris. To be noted: Candidozyma auris; C. auris AR Bank #389; read-out: MIC. In short, it runs like this: as §1
Assay [9] relates to Candida duobushaemulonii AR Bank #391. In words: MIC determination by in vitro antifungal assay. The format is cell-based. To be noted: Candidozyma duobushaemuli, read-out: MIC. How it is done: (§2) The antifungal agent amphotericin B (AmB) was purchased from VWR (Radnor PA, USA). AmB was dissolved in DMSO at a final concentration of 5 mg/mL and was stored at −20° C., protected from light. Candida albicans American Type Culture Collection (ATCC) 10231 (strain A), C. albicans ATCC 64124 (B), and C. albicans ATCC MYA-2876 (C) were obtained from Utah State University. C. albicans ATCC 90819 (D), C. albicans ATCC MYA-2310 (E), C. albicans ATCC MYA-1237 (F), C. albicans ATCC MYA-1003 (G), Candida glabrata ATCC 2001 (H), Candida krusei ATCC 6258 (I), Candida parapsilosis ATCC 22019 (J), Cryptococcus neoformans ATCC MYA-895 (M), Aspergillus terreus ATCC MYA-3633 (N), and Aspergillus flavus ATCC MYA-3631 (0) were obtained from the American Type Culture Collection (ATCC; Manassas, VA, USA). Aspergillus nidulans ATCC 38163 (P) was obtained from University of Kentucky. Clinically derived Aspergillus fumigatus NRRL 163 (Q), A. fumigatus NRRL 5109 (R), and A. fumigatus NRRL 6113 (S) were obtained from Northern Regional Research Laboratory (NRRL). Candida auris 384 (K), C. auris 390 (L), and fungal strains 381-400 (including 10 C. auris (AR Bank #381-390), 3 Candida duobushaemulonii (AR Bank #391, AR Bank #392, and AR Bank #394), 2 Candida haemulonii (AR Bank #393 and AR Bank #395), 1 Kodameae ohmeri (AR Bank #396), 1 C. krusei (AR Bank #397), 1 Candida lusitaniae (AR Bank #398), and 2 Saccharomyces cerevisiae strains (AR Bank #399 and AR Bank #400)) were part of a larger fungal library from the AR Bank maintained by the Centers for Disease Control and Prevention (CDC; Atlanta, GA, USA). Filamentous fungi and yeasts were cultivated at 35° C. in RPMI 1640 medium (with L-glutamine, without sodium bicarbonate, Sigma-Aldrich, St. Louis, MO) buffered to a pH of 7.0 with 0.165 M morpholinepropanesulfonic acid (MOPS) buffer (Sigma-Aldrich). For cytotoxicity assays, HepG2 and the mouse macrophage cell line J774A.1 were obtained from University of Kentucky. The human embryonic kidney cell line, HEK-293, was bought from the ATCC. Mammalian cells were grown in Dulbecco's Modified Eagle's Medium (DMEM) (from VWR) with 10% fetal bovine serum (FBS) (from VWR) and 1% Pen/Strep (from ATCC). Cell lines were cultured at 37° C. with 5% CO2 and passaged by trypsinization with 0.05% trypsin: 0.53 mM EDTA (from Sigma-Aldrich).
(§3) From the actively growing yeast culture, 100 µL were then transferred to 900 μL of RPMI 1640 medium and re-adjusted to achieve OD600 of 0.12 (˜1×10^6 CFU/mL). The cell suspension was further diluted to achieve 1:100 in RPMI 1640 medium.

The subject of assay [10] is Candida duobushaemulonii AR Bank #392. In words: MIC determination by in vitro antifungal assay. The format is cell-based. To be noted: Candidozyma duobushaemuli, read-out: MIC. How it is done: as §2, §3
Assay [11] has as its system Candida duobushaemulonii AR Bank #394. In words: MIC determination by in vitro antifungal assay. The format is cell-based. The conditions noted are these: Candidozyma duobushaemuli, read-out: MIC. How it is done: as §2, §3
For assay [12], the system named is Candida haemulonii AR Bank #393. Put plainly: MIC determination by in vitro antifungal assay. The format is cell-based. The conditions noted are these: Candidozyma haemuli, read-out: MIC. How it is done:
as §2, §3

In assay [13] the test system is Candida haemulonii AR Bank #395. Put plainly: MIC determination by in vitro antifungal assay. The format is cell-based. To be noted: Candidozyma haemuli, read-out: MIC. How it is done:
as §2, §3

Assay [14] relates to Candida krusei AR Bank #397. Put plainly: MIC determination by in vitro antifungal assay. The assay is classed as cell-based. The conditions noted are these: Pichia kudriavzevii; Candida strain AR Bank #397; read-out: MIC. How it is done:
as §2, §3

In assay [15] the test system is Candida lusitaniae AR Bank #398. Put plainly: MIC determination by in vitro antifungal assay. The assay is classed as cell-based. The conditions noted are these: Clavispora lusitaniae; Candida strain AR Bank #398; read-out: MIC. The protocol:
as §2, §3

Assay [16] relates to Kodameae ohmeri AR Bank #396. Put plainly: MIC determination by in vitro antifungal assay. The assay is classed as cell-based. The conditions noted are these: strain AR Bank #396; read-out: MIC. How it is done:
as §2, §3

The subject of assay [17] is Saccharomyces cerevisiae AR Bank #399. In words: MIC determination by in vitro antifungal assay. The assay is classed as cell-based. The conditions noted are these: read-out: MIC. The protocol: as §2, §3
Assay [18] has as its system panel of ten C. auris strains (AR Bank #381-390). In words: MIC determination, summary over the C. auris panel. The assay is classed as cell-based, Candida auris. To be noted: Candidozyma auris; against all ten C. auris strains tested (AR Bank #381-390). The method in brief:
as §1

Assay [19] deals with ten other fungal strains (AR Bank #391-400). In words: MIC determination, summary over ten additional fungal strains. The format is cell-based. The conditions noted are these: read-out: MIC range. The protocol:
as §2, §3

`COc1ccc(NNC(=O)c2ccccn2)cc1` [Compound 2f]: the MIC (usually the lowest concentration found to suppress growth) was found to be 1.95 µg/mL (≈ 8.02 µM) in [1]; 1.95 µg/mL (≈ 8.02 µM) in assay [2]; 1.95 µg/mL (≈ 8.02 µM) in [3]; 0.98 µg/mL (≈ 4.03 µM) in assay [4]; 0.24 µg/mL (≈ 0.987 µM) in [5]; 0.49 µg/mL (≈ 2.01 µM) in assay [6]. For the same compound, the minimum inhibitory concentration (MIC) in assay [7] was 0.49 µg/mL (≈ 2.01 µM); in assay [8], 0.24 µg/mL (≈ 0.987 µM); in assay [9], 0.98 µg/mL (≈ 4.03 µM); in [10], 0.98 µg/mL (≈ 4.03 µM); in assay [11], 0.98 µg/mL (≈ 4.03 µM); in assay [12] it was 0.49 µg/mL (≈ 2.01 µM). Moreover, the MIC in assay [13] is 0.49 µg/mL (≈ 2.01 µM); in assay [14], 0.49 µg/mL (≈ 2.01 µM); in [15] it was 0.98 µg/mL (≈ 4.03 µM); in assay [16], 0.49 µg/mL (≈ 2.01 µM); in assay [17], 1.95 µg/mL (≈ 8.02 µM); in assay [18], 0.12 to 7.8 µg/mL (≈ 0.493 to 32.1 µM). Further, the MIC in assay [19] lay in the range of 0.06 to 1.95 µg/mL (≈ 0.247 to 8.02 µM).
`O=C(NNc1ccc(F)cc1F)c1ccccn1` [Compound 2g]: the MIC amounted to 0.49 µg/mL (≈ 1.97 µM) in assay [1]; 0.49 µg/mL (≈ 1.97 µM) in assay [2]; 0.49 µg/mL (≈ 1.97 µM) in assay [3]; 0.49 µg/mL (≈ 1.97 µM) in assay [4]; 0.49 µg/mL (≈ 1.97 µM) in assay [5]; 0.12 µg/mL (≈ 0.482 µM) in [6]. For the same compound, the MIC in assay [7] is 0.12 µg/mL (≈ 0.482 µM); in assay [8] it was 0.24 µg/mL (≈ 0.963 µM); in [9] it was 0.12 µg/mL (≈ 0.482 µM); in assay [10], 0.49 µg/mL (≈ 1.97 µM); in [11], 3.9 µg/mL (≈ 15.6 µM); in assay [12], 0.49 µg/mL (≈ 1.97 µM). Moreover, the minimal inhibitory concentration (MIC) was 0.24 µg/mL (≈ 0.963 µM) in [13]; at most 0.06 µg/mL in [14]; 1.95 µg/mL (≈ 7.82 µM) in assay [15]; 0.98 µg/mL (≈ 3.93 µM) in assay [16]; 0.49 µg/mL (≈ 1.97 µM) in assay [17]; 0.06 to 1.95 µg/mL (≈ 0.241 to 7.82 µM) in assay [18]. In assay [19], the MIC was 0.06 to 7.8 µg/mL (≈ 0.241 to 31.3 µM).
Consider `O=C(NNc1cc(F)ccc1F)c1ccccn1` [Compound 2h], for which the MIC in [1] was 1.95 µg/mL (≈ 7.82 µM); in assay [2] it was 0.24 µg/mL (≈ 0.963 µM); in [3], 0.49 µg/mL (≈ 1.97 µM); in [4], 0.49 µg/mL (≈ 1.97 µM); in [5], 0.12 µg/mL (≈ 0.482 µM); in [6] it was 0.49 µg/mL (≈ 1.97 µM). Also, the MIC in assay [7] stood at 0.49 µg/mL (≈ 1.97 µM); in assay [8], 0.49 µg/mL (≈ 1.97 µM); in assay [9], 0.49 µg/mL (≈ 1.97 µM); in [10], 0.24 µg/mL (≈ 0.963 µM); in assay [11] it was 0.24 µg/mL (≈ 0.963 µM); in assay [12] it was 0.98 µg/mL (≈ 3.93 µM). For the same compound, the MIC in assay [13] was 0.24 µg/mL (≈ 0.963 µM); in [14], 0.24 µg/mL (≈ 0.963 µM); in [15] it was 0.49 µg/mL (≈ 1.97 µM); in [16], 0.12 µg/mL (≈ 0.482 µM); in assay [17] it was 1.95 µg/mL (≈ 7.82 µM); in assay [18], 0.06 to 1.95 µg/mL (≈ 0.241 to 7.82 µM). For the same compound, in assay [19], the MIC lay in the range of 0.06 to 1.95 µg/mL (≈ 0.241 to 7.82 µM).
